Test results from patent publication US12364702B2, “Highly active sting protein agonist compound” (ADLAI NORTYE BIOPHARMA CO., LTD., priority 2018, dated 2025).
pEC50: −log10 of the molar value.

What was measured:
Assay type in all cases: cell-based
STING HAQ variant = biological target: T1, STING HAQ variant (Homo sapiens, UniProt Q86WV6, G230A/R293Q/R71H); test: SEAP reporter assay in HEK-Blue ISG KO-STING cells transfected with STING HAQ variant (Method 1); conditions: 24 h, SEAP signal vs 0.5% DMSO
T1 construct: host or cells: HEK-Blue ISG KO-STING cells (Invivogen, hkb-kostg)
T1 sequence (Q86WV6 whole entry R71H/G230A/R293Q): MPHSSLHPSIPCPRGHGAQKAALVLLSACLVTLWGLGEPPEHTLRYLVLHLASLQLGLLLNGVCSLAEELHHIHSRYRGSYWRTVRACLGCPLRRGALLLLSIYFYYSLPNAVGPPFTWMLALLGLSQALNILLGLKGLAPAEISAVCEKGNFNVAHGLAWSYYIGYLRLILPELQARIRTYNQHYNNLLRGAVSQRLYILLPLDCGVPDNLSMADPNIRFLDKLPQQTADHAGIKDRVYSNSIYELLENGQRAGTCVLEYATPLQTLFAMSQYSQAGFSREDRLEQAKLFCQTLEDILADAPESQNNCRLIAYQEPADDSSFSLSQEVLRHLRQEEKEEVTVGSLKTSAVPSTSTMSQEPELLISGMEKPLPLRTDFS
Description: (§1) Activation of STING can be determined using a SEAP reporter assay in HEK-Blue™ ISG KO-STING cells (Invivogen, cat #hkb-kostg) transfected with plasmids expressing STING variants (WT & HAQ) (referred to WO2017/175147A1). STING variants (WT & HAQ) vector were constructed based on STING-232H vector (Origene, RC208418). GFP vector (VT2069) was bought from Youbio. The detailed protocol as follows: HEK-Blue™ ISG KO-STING cells were harvest and seeding into 96 well plate, the final cell number was 0.8×10^5 cells/well. Transfections were prepared using Lipofectamine 2000 (Invitrogen, Cat #11668-027) following the manufacturer's instructions (Lipo2000/DNA=1/10), 20 ul of transfection suspension containing 1 ng STING vector was added to cell culture plate and incubated at 37° C., 5% CO2 for 24 hours. After 24 hours' incubation, compounds were added at proper concentration, and the final DMSO concentration was 0.5%. After 24 h incubation, the supernatant was collected to detect SEAP signal using Great EscAPe SEAP chemiluminescence KIT (Clontech, cat #631738) and cells were collected to detect cell viability using CellTiter-Glo Luminescent Cell Viability Assay (Promega, cat #G7573) following the manufacturer's instructions. The data were described by the ratio of the stimulating signal of compounds to 0.5% DMSO.

STING = STING (Homo sapiens, UniProt Q86WV6); test: IFN-β secretion from THP1 by STING activation (hIFNβ ELISA); conditions: THP1 cells, 24 h incubation, IFN-β in supernatant, top dose set according to solubility; for pEC50: read-out: hIFNβ ELISA (EC50)
Chain of STING (Q86WV6 whole entry): as the sequence (Q86WV6 whole entry R71H/G230A/R293Q) above, with H71R, A230G, Q293R counted along it
Protocol: In this assay, activation of STING by compounds was evaluated by detecting their ability to stimulate the secretion of IFN-β (interferon-beta) from THP1. THP1 was purchased from National Collection of Authenticated Cell Cultures (Cat #TCHu 57). The top dose of compounds was setted according to their solubility. First, Compounds were 3 times diluted with medium, 8-dose points in total. The final DMSO concentration was 0.2%. THP1 during the logarithmic phase was resuspended to 2×10^6 cells/ml in assay medium. The THP1-cell suspension was dispensed into a 96-well U bottom plate containing 50 ul of compound diluted in medium. After 24 h incubation at 37° C., 5% CO2, the supernatant was collected. The concentration of IFN-β in the supernatant was measured using a human IFNβ ELISA KIT (R&D, DY814-05). The data was fitted with GraphPad Prism or XLfit to calculate EC50 values.

STING WT variant = biological target: T2, STING WT variant (Homo sapiens, UniProt Q86WV6); test: SEAP reporter assay in HEK-Blue ISG KO-STING cells transfected with STING WT variant (Method 1); conditions: 24 h, SEAP signal vs 0.5% DMSO
T2 construct: host or cells: HEK-Blue ISG KO-STING cells (Invivogen, hkb-kostg)
Description: as §1

[1] = 1 ng STING vector, compound 5 uM
[2] = 1 ng STING vector, compound 2.5 uM

Fold change related to DMSO control HAQ (STING HAQ variant; [1]) | pEC50 (STING) | Fold change related to DMSO control WT (STING WT variant; [2]) | hIFNβ ELISA (EC50, μM) (STING) | SMILES | other results
33.34 | < 4.89 | 1.96 |  | CCn1nc(C)cc1C(=O)Nc1nc2cc(C(N)=O)cc(OCCCNS(C)(=O)=O)c2n1CCC[C@H]1COc2cc(C(N)=O)cc3nc(NC(=O)c4cc(C)nn4CC)n1c23 [Example 30, (S)-3-(3-(5-carbamoyl-2-(1-ethyl-3-methyl-1H-pyrazole-5-carboxamido)-7-(3-(methylsulfonamido)propoxy)-1H-benzo[d]imidazol-1-yl)propyl)-2-(1-ethyl-3-methyl-1H-pyrazole-5-carboxamido)-3,4-dihydro-5-oxa-1,2a-diazaacenaphthylene-7-carboxamide] | 
 |  |  | inactive | CCn1nc(C)cc1C(=O)Nc1nc2cc(C(N)=O)cc(OCCCOC)c2n1CC[C@H]1COc2cc(C(N)=O)cc3nc(NC(=O)c4cc(C)nn4CC)n1c23 [Example 7, (S)-3-(2-(5-carbamoyl-2-(1-ethyl-3-methyl-1H-pyrazole-5-carboxamido)-7-(3-methoxypropoxy)-1H-benzo[d]imidazol-1-yl)ethyl)-2-(1-ethyl-3-methyl-1H-pyrazole-5-carboxamido)-3,4-dihydro-5-oxa-1,2a-diazaacenaphthylene-7-carboxamide] | Fold change related to DMSO control HAQ (STING HAQ variant; compound 80.2 uM): 20.29; Fold change related to DMSO control WT (STING WT variant; compound 80.2 uM): 1.96
 |  |  | inactive | CCn1nc(C)cc1C(=O)Nc1nc2cc(C(N)=O)cc(OCCCOC)c2n1CCCC[C@H]1COc2cc(C(N)=O)cc3nc(NC(=O)c4cc(C)nn4CC)n1c23 [Example 8, (S)-3-(4-(5-carbamoyl-2-(1-ethyl-3-methyl-1H-pyrazole-5-carboxamido)-7-(3-methoxypropoxy)-1H-benzo[d]imidazol-1-yl)butyl)-2-(1-ethyl-3-methyl-1H-pyrazole-5-carboxamido)-3,4-dihydro-5-oxa-1,2a-diazaacenaphthylene-7-carboxamide] | Fold change related to DMSO control HAQ (STING HAQ variant; compound 4.7 uM): 8.09; Fold change related to DMSO control WT (STING WT variant; compound 4.7 uM): 2.08
16.31 | 4.92 | 1.88 |  | CCn1nc(C)cc1C(=O)Nc1nc2cc(C(N)=O)cc(OCCCNC(=O)C[C@H]3COCCN3)c2n1CCC[C@H]1COc2cc(C(N)=O)cc3nc(NC(=O)c4cc(C)nn4CC)n1c23 [Example 33] | 
 | 4.93 |  |  | CCn1nc(C)cc1C(=O)Nc1nc2cc(C(N)=O)cc(OCCCN(C)C(=O)CN(C)C)c2n1CCC[C@H]1COc2cc(C(N)=O)cc3nc(NC(=O)c4cc(C)nn4CC)n1c23 [Example 28, (S)-3-(3-(5-carbamoyl-7-(3-(2-(dimethylamino)-N-methylacetamido)propoxy)-2-(1-ethyl-3-methyl-1H-pyrazole-5-carboxamido)-1H-benzo[d]imidazol-1-yl)propyl)-2-(1-ethyl-3-methyl-1H-pyrazole-5-carboxamido)-3,4-dihydro-5-oxa-1,2a-diazaacenaphthylene-7-carboxamide] | 
20.47 | < 4.75 | 2.07 |  | CCn1nc(C)cc1C(=O)Nc1nc2cc(C(N)=O)cc(OCCNC)c2n1CCC[C@H]1COc2cc(C(N)=O)cc3nc(NC(=O)c4cc(C)nn4CC)n1c23 [Example 16, (S)-3-(3-(5-carbamoyl-2-(1-ethyl-3-methyl-1H-pyrazole-5-carboxamido)-7-(2-(methylamino)ethoxy)-1H-benzo[d]imidazol-1-yl)propyl)-2-(1-ethyl-3-methyl-1H-pyrazole-5-carboxamido)-3,4-dihydro-5-oxa-1,2a-diazaacenaphthylene-7-carboxamide] | 
 |  |  | inactive | CCn1nc(C)cc1C(=O)Nc1nc2cc(C(N)=O)cc(OCCCOC)c2n1CCC[C@@H]1COc2cc(C(N)=O)cc3nc(NC(=O)c4cc(C)nn4CC)n1c23 [Example 2, (R)-3-(3-(5-Carbamoyl-2-(1-ethyl-3-methyl-1H-pyrazole-5-carboxamido)-7-(3-methoxypropoxy)-1H-benzo[d]imidazol-1-yl)propyl)-2-(1-ethyl-3-methyl-1H-pyrazole-5-carboxamido)-3,4-dihydro-5-oxa-1,2a-diazaacenaphthylene-7-carboxamide] | Fold change related to DMSO control HAQ (STING HAQ variant; compound 15.65 uM): 2.52; Fold change related to DMSO control WT (STING WT variant; compound 15.65 uM): 1.99
26.64 | < 5.52 | 1.79 |  | CCn1nc(C)c(Br)c1C(=O)Nc1nc2cc(C(N)=O)cc3c2n1[C@@H](CCCn1c(NC(=O)c2cc(C)nn2CCF)nc2cc(C(N)=O)cc(OCCCOC)c21)CO3 [Example 13, (S)-2-(4-bromo-1-ethyl-3-methyl-1H-pyrazole-5-carboxamido)-3-(3-(5-carbamoyl-2-(1-(2-fluoroethyl)-3-methyl-1H-pyrazole-5-carboxamido)-7-(3-methoxypropoxy)-1H-benzo[d]imidazol-1-yl)propyl)-3,4-dihydro-5-oxa-1,2a-diazaacenaphthylene-7-carboxamide] | 
27.74 |  | 1.83 |  | CCn1nc(C)cc1C(=O)Nc1nc2cc(C(N)=O)cc(OCCCOC)c2n1CCC[C@H]1COc2cc(C#N)cc3nc(NC(=O)c4cc(C)nn4CC)n1c23 [Example 11, (S)-1-(3-(7-cyano-2-(1-ethyl-3-methyl-1H-pyrazole-5-carboxamido)-3,4-dihydro-5-oxa-1,2a-diazaacenaphthylen-3-yl)propyl)-2-(1-ethyl-3-methyl-1H-pyrazole-5-carboxamido)-7-(3-methoxypropoxy)-1H-benzo[d]imidazole-5-carboxamide] | 
 | < 5.37 |  |  | CCn1nc(C)c2c1C(=O)Nc1nc3cc(C(N)=O)cc4c3n1[C@@H](CCCn1c(nc3cc(C(N)=O)cc(OCCCOC)c31)NC(=O)c1cc(C)nn1CCCCC2)CO4 [Example 58, (S)-7-Ethyl-24-(3-methoxypropoxy)-9,16-dimethyl-6,18-dioxo-5,6,7,10,11,12,13,14,18,19,26,27,27a,28-tetradecahydro-25H-29-oxa-4,4a1,5,7,8,14a,15,19,20,24b-decaaza-dicyclopenta[11, 12:18,19]indeno[1′,2′:7,8]cyclohenicosa[1,2,3-bc]acenaphthylene-2,22-dicarboxamide] | 
 | < 5.25 |  |  | CCn1nc(C)c2c1C(=O)Nc1nc3cc(C(N)=O)cc(OCCCOC)c3n1CCC[C@H]1COc3cc(C(N)=O)cc4nc(n1c34)NC(=O)c1cc(C)nn1CCCCC2 [Example 59, (S)-17-ethyl-24-(3-methoxypropoxy)-8,15-dimethyl-6,18-dioxo-5,6,10,11,12,13,14,17, 18, 19, 26, 27, 27a,28-tetradecahydro-25H-29-oxa-4,4a1,5,9,9a,16, 17, 19, 20, 24b-decaazadicyclopenta[11, 12:18,19]indeno[1′,2′:7,8]cyclohenicosa[1,2,3-bc]acenaphthylene-2,22-dicarboxamide] | 
 |  |  | inactive | CCn1nc(C)cc1C(=O)Nc1nc2cc(C(N)=O)cc(OCCCOC)c2n1CCC[C@H]1COc2cc(-c3nn[nH]n3)cc3nc(NC(=O)c4cc(C)nn4CC)n1c23 [Example 26, (S)-2-(1-ethyl-3-methyl-1H-pyrazole-5-carboxamido)-1-(3-(2-(1-ethyl-3-methyl-1H-pyrazole-5-carboxamido)-7-(2H-tetrazol-5-yl)-3,4-dihydro-5-oxa-1,2a-diazaacenaphthylen-3-yl)propyl)-7-(3-methoxypropoxy)-1H-benzo[d]imidazole-5-carboxamide] | 

SMILES | Fold change related to DMSO control HAQ (STING HAQ variant; [1]) | pEC50 (STING) | Fold change related to DMSO control WT (STING WT variant; [2]) | hIFNβ ELISA (EC50, μM) (STING) | other results
CCn1nc(C)cc1C(=O)Nc1nc2cc(C(N)=O)cc(OCC[C@@H](O)CO)c2n1CCC[C@H]1COc2cc(C(N)=O)cc3nc(NC(=O)c4cc(C)nn4CC)n1c23 [Example 38, (S)-3-(3-(5-carbamoyl-7-((R)-3,4-dihydroxybutoxy)-2-(1-ethyl-3-methyl-1H-pyrazole-5-carboxamido)-1H-benzo[d]imidazol-1-yl)propyl)-2-(1-ethyl-3-methyl-1H-pyrazole-5-carboxamido)-3,4-dihydro-5-oxa-1,2a-diazaacenaphthylene-7-carboxamide] | 18.05 |  | 2.15 | inactive | 
